ChEMBL document CHEMBL3885881, “DrugMatrix”

Species: Rattus norvegicus
Assay: DrugMatrix - Regimen: Daily Repeat
Assay type: toxicity, organism-based, Sprague-Dawley
Set-up: regimen Daily Repeat, gender Male, age 6-8 weeks
Conditions: in vivo, po, 400 mg/kg, route oral GAVAGE, dose level High, […]; for ABSOLUTE BASOPHIL / ABSOLUTE EOSINOPHIL / ABSOLUTE LYMPHOCYTE / ABSOLUTE MONOCYTE / ABSOLUTE SEGMENTED NEUTROPHIL / BASOPHIL / EOSINOPHIL / ERYTHROCYTE COUNT / HEMATOCRIT / HEMOGLOBIN / LEUKOCYTE COUNT / LYMPHOCYTE / MEAN CORPUSCULAR HEMOGLOBIN / MEAN CORPUSCULAR HEMOGLOBIN CONCENTRATION / MEAN CORPUSCULAR VOLUME / MONOCYTE / NEUTROPHIL / NUCLEATED RED BLOOD CELLS / PLATELET COUNT: tissue Blood; for ALANINE AMINOTRANSFERASE / ALBUMIN / ALKALINE PHOSPHATASE / ASPARTATE AMINOTRANSFERASE / BLOOD UREA NITROGEN / CARBON DIOXIDE / CHLORIDE / CHOLESTEROL / CREATINE PHOSPHOKINASE / CREATININE / GLUCOSE / LACTATE DEHYDROGENASE / LIPASE / PHOSPHORUS / POTASSIUM / SODIUM / TOTAL BILIRUBIN / TOTAL PROTEIN / URIC ACID: tissue Plasma

## COC(=O)[C@H](c1ccccc1Cl)N1CCc2sccc2C1 [CLOPIDOGREL]
72 h, time 3 day
  ABSOLUTE BASOPHIL: 0 CELLS/uL
  ABSOLUTE EOSINOPHIL: 86.67 CELLS/uL
  ABSOLUTE LYMPHOCYTE: 12550.67 CELLS/uL
  ABSOLUTE MONOCYTE: 229.67 CELLS/uL
  ABSOLUTE SEGMENTED NEUTROPHIL: 1366.33 CELLS/uL
  BASOPHIL: 0%
  EOSINOPHIL: 0.67%
  ERYTHROCYTE COUNT: 5.22 x10E6/uL
  HEMATOCRIT: 31.7%
  HEMOGLOBIN: 12.8 G/DL
  LEUKOCYTE COUNT: 14.23 x10E3/uL
  LYMPHOCYTE: 88%
  MEAN CORPUSCULAR HEMOGLOBIN: 24.5 pg
  MEAN CORPUSCULAR HEMOGLOBIN CONCENTRATION: 40.4 G/DL
  MEAN CORPUSCULAR VOLUME: 60.77 fL
  MONOCYTE: 1.67%
  NEUTROPHIL: 9.67%
  NUCLEATED RED BLOOD CELLS: 0 /100WBC
  PLATELET COUNT: 1169.33 x10E3/uL
  ALANINE AMINOTRANSFERASE: 98.67 u/L
  ALBUMIN: 3.97 G/DL
  ALKALINE PHOSPHATASE: 463 u/L
  ASPARTATE AMINOTRANSFERASE: 113 u/L
  BLOOD UREA NITROGEN: 13.67 mg/dL
  CARBON DIOXIDE: 27.67 mmol/L
  CHLORIDE: 102.67 MEQ/L
  CHOLESTEROL: 80 mg/dL
  CREATINE PHOSPHOKINASE: 460.67 u/L
  CREATININE: 0.21 mg/dL
  GLUCOSE: 145 mg/dL
  LACTATE DEHYDROGENASE: 361 u/L
  LIPASE: 14.33 u/L
  PHOSPHORUS: 10.53 mg/dL
  POTASSIUM: 6.16 MEQ/L
  SODIUM: 141.23 MEQ/L
  TOTAL BILIRUBIN: 0.23 mg/dL
  TOTAL PROTEIN: 5.47 G/DL
  URIC ACID: 1.13 mg/dL
120 h, time 5 day
  ABSOLUTE BASOPHIL: 0 CELLS/uL
  ABSOLUTE EOSINOPHIL: 131.33 CELLS/uL
  ABSOLUTE LYMPHOCYTE: 15650.33 CELLS/uL
  ABSOLUTE MONOCYTE: 297.33 CELLS/uL
  ABSOLUTE SEGMENTED NEUTROPHIL: 2887.67 CELLS/uL
  BASOPHIL: 0%
  EOSINOPHIL: 0.67%
  ERYTHROCYTE COUNT: 5.21 x10E6/uL
  HEMATOCRIT: 31.5%
  HEMOGLOBIN: 12.6 G/DL
  LEUKOCYTE COUNT: 18.97 x10E3/uL
  LYMPHOCYTE: 84%
  MEAN CORPUSCULAR HEMOGLOBIN: 24.17 pg
  MEAN CORPUSCULAR HEMOGLOBIN CONCENTRATION: 40 G/DL
  MEAN CORPUSCULAR VOLUME: 60.37 fL
  MONOCYTE: 1.67%
  NEUTROPHIL: 13.67%
  NUCLEATED RED BLOOD CELLS: 0 /100WBC
  PLATELET COUNT: 1167.67 x10E3/uL
  ALANINE AMINOTRANSFERASE: 76 u/L
  ALBUMIN: 3.8 G/DL
  ALKALINE PHOSPHATASE: 362.67 u/L
  ASPARTATE AMINOTRANSFERASE: 110.67 u/L
  BLOOD UREA NITROGEN: 16.33 mg/dL
  CARBON DIOXIDE: 26 mmol/L
  CHLORIDE: 101 MEQ/L
  CHOLESTEROL: 86.67 mg/dL
  CREATINE PHOSPHOKINASE: 941 u/L
  CREATININE: 0.15 mg/dL
  GLUCOSE: 135 mg/dL
  LACTATE DEHYDROGENASE: 452.33 u/L
  LIPASE: 12.33 u/L
  PHOSPHORUS: 12.5 mg/dL
  POTASSIUM: 5.63 MEQ/L
  SODIUM: 141.87 MEQ/L
  TOTAL BILIRUBIN: 0.2 mg/dL
  TOTAL PROTEIN: 5.4 G/DL
  URIC ACID: 1.1 mg/dL
